pIC50: −log10 of the molar value.
Experiments:
[1] = test system: HCT-116; assay: Antiproliferative activity against human HCT116 cells after 72 hrs by CellTiter 96 AQueous Non-Radioactive assay; assay type: functional, cell-based; details: HCT-116, 72 h
[2] = target: T1, Histone deacetylase 1 (Homo sapiens, UniProt Q13547); assay: Inhibition of full length recombinant human GST fused His6-tagged HDAC1 expressed in baculovirus infected High5 cells using Ac-Lys-Tyr-Lys(epsilon-acetyl)-AMC as substrate measured after 24 hrs
[3] = test system: RPMI-8226; assay: Antiproliferative activity against human RPMI8226 cells after 72 hrs by CellTiter 96 AQueous Non-Radioactive assay; assay type: functional, cell-based; details: RPMI-8226, 72 h
[4] = target: T2, Protein deacetylase HDAC6 (Homo sapiens, UniProt Q9UBN7); assay: Inhibition of full length recombinant human GST fused His6-tagged HDAC6 expressed in baculovirus infected High5 cells using Boc-Lys(epsilon-acetyl)-AMC as substrate measured after 3 hrs
T2 sequence (Q9UBN7 whole entry): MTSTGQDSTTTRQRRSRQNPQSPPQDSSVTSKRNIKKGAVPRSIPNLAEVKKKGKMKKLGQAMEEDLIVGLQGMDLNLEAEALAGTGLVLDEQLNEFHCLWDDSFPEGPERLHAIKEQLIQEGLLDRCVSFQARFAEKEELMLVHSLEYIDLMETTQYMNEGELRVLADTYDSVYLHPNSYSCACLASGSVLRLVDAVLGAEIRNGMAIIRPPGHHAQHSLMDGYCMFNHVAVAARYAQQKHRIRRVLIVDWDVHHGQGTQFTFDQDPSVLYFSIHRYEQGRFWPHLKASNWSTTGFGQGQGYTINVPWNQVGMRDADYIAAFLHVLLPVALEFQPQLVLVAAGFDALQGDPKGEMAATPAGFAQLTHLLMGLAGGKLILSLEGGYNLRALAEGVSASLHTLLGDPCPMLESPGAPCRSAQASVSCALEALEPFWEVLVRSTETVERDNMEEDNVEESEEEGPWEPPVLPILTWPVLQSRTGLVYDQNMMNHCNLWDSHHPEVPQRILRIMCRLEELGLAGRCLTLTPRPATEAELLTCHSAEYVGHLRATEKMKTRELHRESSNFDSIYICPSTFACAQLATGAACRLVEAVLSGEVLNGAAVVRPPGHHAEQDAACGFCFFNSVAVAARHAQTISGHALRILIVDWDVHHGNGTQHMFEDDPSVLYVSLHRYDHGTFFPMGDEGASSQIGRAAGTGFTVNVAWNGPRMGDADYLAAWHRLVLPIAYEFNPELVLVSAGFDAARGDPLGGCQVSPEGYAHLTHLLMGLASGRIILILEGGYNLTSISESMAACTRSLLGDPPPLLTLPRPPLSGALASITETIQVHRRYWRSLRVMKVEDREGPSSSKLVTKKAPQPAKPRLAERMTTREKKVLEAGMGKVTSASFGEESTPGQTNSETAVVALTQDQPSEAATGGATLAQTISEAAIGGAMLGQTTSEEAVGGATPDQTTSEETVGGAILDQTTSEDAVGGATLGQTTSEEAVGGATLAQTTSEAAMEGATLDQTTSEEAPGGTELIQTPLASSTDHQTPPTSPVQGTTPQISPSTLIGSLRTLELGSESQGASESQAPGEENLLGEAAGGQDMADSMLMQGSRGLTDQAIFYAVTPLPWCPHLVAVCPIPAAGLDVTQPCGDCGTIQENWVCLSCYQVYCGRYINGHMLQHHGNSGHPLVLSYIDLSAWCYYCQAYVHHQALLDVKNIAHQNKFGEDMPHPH

[5] = target: Histone deacetylase 3 (Homo sapiens, UniProt O15379); assay: Inhibition of full length recombinant human GST fused His6-tagged HDAC3 expressed in baculovirus infected High5 cells using Ac-Lys-Tyr-Lys(epsilon-acetyl)-AMC as substrate measured after 24 hrs
[6] = target: T3, Protein deacetylase HDAC6 (Homo sapiens) (UniProt Q9UBN7); assay: Inhibition of HDAC6 in human RPMI8226 cells assessed as increase in tubulin acetylation after 24 hrs by western blot analysis; assay type: cell-based
T3 sequence (whole entry): T2 sequence (Q9UBN7 whole entry)

[7] = target: T1, Histone deacetylase 1; assay: Inhibition of HDAC1 in human RPMI8226 cells assessed as increase in histone H3 acetylation after 24 hrs by western blot analysis; assay type: cell-based

Sequence of Histone deacetylase 3 (O15379 whole entry, the tested form may be a part): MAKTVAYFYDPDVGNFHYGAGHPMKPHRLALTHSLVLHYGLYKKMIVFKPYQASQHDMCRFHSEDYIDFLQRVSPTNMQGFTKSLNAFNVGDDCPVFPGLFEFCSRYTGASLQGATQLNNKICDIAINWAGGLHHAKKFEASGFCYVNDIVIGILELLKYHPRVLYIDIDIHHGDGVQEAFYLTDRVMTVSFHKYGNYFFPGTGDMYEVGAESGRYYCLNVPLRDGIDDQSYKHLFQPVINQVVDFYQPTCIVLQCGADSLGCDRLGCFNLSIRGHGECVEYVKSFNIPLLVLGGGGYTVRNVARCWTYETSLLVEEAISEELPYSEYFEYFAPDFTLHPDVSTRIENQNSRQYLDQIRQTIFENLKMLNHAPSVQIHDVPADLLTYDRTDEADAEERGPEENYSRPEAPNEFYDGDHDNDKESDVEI
T1 sequence (Q13547 whole entry, the tested form may be a part): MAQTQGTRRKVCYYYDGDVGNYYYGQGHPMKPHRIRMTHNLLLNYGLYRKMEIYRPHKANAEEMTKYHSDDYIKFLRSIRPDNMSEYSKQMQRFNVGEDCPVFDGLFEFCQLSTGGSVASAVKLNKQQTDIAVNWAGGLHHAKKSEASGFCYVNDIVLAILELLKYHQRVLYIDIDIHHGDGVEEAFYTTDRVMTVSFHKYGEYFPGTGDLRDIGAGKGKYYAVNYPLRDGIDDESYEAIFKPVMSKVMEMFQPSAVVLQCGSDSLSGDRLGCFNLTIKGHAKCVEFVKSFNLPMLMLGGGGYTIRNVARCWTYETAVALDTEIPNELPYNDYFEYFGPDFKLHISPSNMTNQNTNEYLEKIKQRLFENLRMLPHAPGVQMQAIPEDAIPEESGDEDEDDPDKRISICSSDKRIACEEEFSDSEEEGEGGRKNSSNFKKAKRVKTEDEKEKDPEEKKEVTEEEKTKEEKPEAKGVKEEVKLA

SMILES	pIC50 [1]	pIC50 [2]	pIC50 [3]	pIC50 [4]	pIC50 [5]	inhibition [6]	inhibition [7]
O=C(CCCCCCC(=O)Nc1cc2ncnc(Nc3cccc(Cl)c3)c2s1)NO	5.74	7.27	5.82	7.47	7.34	–	–
N#Cc1cccc(Nc2ncnc3cc(NC(=O)CCCCCCC(=O)NO)sc23)c1	5.68	7.35	5.80	7.70	7.70	Dose-dependent effect	Dose-dependent effect
O=C(CCCCCCC(=O)Nc1cc2ncnc(Nc3cccc(Br)c3)c2s1)NO	5.76	7.26	5.76	7.77	7.47	–	–
COc1cccc(Nc2ncnc3cc(NC(=O)CCCCCCC(=O)NO)sc23)c1	5.88	7.21	5.90	7.68	7.67	Dose-dependent effect	Dose-dependent effect
O=C(CCCCCCC(=O)Nc1cc2ncnc(Nc3cccc(F)c3)c2s1)NO	5.75	7.13	5.79	7.37	7.19	–	–
COc1ccc(Nc2ncnc3cc(NC(=O)CCCCCCC(=O)NO)sc23)c(C)c1	5.61	6.93	5.70	6.95	6.84	–	–
Cc1ccccc1Nc1ncnc2cc(NC(=O)CCCCCC(=O)NO)sc12	5.59	6.86	5.76	7.06	7.01	–	–
CCc1cccc(Nc2ncnc3cc(NC(=O)CCCCCCC(=O)NO)sc23)c1	5.84	6.93	5.80	7.23	6.83	–	–

From ChEMBL document CHEMBL4004853, “Design, synthesis and biological evaluation of thienopyrimidine hydroxamic acid based derivatives as structurally novel histone deacetylase (HDAC) inhibitors” (Eur J Med Chem, 2017)
